Measured values from US5852210A, “Cinnamic acid derivatives” (G. D. Searle & Co., priority 1997, dated 1998).
Structures can show the parent of a compound that is named as a salt.

Legend:
[1] = biological target: T1, Human vitronectin receptor (αv β3) (Homo sapiens, UniProt P05106+P06756); test: Vitronectin adhesion assay (solid phase receptor assay, αvβ3); format: binding; conditions: inhibition of binding of biotinylated human vitronectin (1 nM) to purified receptor; Table I; read-out: AvB3 IC50
T1 construct: Human vitronectin receptor (αv β3) was purified from human placenta; from tissue; host or cells: human placenta
Method in brief: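 Placental αvβ3 (100 ng/well) coated in TBS with 1 mM Ca, Mg, Mn, pH 7.4, then compound competed with 1 nM biotinylated vitronectin for 2 h at room temperature (top compound concentration 1.0×10^-4 M). Bound ligand detected with HRP anti-biotin/OPD at 450 nm; values normalized to maximum binding, four-parameter curve fit.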

[2] = biological target: T2, Human fibrinogen receptor (αIIb β3) (Homo sapiens, UniProt P05106+P08514); test: Purified IIb/IIIa receptor assay (solid phase receptor assay); conditions: inhibition of binding of biotinylated human vitronectin (1 nM) to purified receptor; Table I
T2 construct: Human fibrinogen receptor (αIIb β3) was purified from outdated platelets; from tissue; host or cells: human outdated platelets
Method in brief: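 Platelet-purified αIIbβ3 (100 ng/well) coated overnight at 4 °C, then competed 2 h at room temperature against 1 nM biotinylated human vitronectin in TBS with 1.0 mM Ca/Mg/Mn, pH 7.4, 1% BSA; top compound 1.0×10^-4 M. Bound ligand detected by HRP anti-biotin, A450, normalized to maximum binding, four-parameter fit.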

T1 sequence (P06756 31-889 limits assumed): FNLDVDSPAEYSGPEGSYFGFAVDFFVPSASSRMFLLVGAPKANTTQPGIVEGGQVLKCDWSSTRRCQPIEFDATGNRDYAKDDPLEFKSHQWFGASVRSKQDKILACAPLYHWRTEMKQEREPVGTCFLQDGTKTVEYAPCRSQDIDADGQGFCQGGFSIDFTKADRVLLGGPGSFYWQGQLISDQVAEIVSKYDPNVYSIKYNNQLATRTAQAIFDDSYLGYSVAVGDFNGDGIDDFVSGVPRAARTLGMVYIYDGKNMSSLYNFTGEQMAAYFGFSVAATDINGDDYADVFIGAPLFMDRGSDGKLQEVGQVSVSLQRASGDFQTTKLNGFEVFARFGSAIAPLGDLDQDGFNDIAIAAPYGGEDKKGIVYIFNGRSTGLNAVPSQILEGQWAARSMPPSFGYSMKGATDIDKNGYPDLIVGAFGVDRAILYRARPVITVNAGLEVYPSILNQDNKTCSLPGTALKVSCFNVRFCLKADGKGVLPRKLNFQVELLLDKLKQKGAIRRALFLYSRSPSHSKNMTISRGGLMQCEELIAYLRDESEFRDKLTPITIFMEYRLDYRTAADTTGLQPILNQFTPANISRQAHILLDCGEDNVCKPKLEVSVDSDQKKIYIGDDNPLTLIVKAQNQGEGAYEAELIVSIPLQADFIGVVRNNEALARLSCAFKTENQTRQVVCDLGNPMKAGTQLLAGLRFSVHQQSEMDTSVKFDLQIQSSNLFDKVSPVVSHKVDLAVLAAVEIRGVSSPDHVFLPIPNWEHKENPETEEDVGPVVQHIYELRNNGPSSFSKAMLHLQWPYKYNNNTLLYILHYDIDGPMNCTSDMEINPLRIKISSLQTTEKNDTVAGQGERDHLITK
T1 sequence (P06756 891-1048 limits assumed): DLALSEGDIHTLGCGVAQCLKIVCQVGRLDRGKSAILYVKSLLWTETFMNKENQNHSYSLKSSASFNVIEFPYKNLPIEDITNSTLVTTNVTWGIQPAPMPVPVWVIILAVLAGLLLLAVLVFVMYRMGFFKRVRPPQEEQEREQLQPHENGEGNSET
T1 sequence (P05106 27-788): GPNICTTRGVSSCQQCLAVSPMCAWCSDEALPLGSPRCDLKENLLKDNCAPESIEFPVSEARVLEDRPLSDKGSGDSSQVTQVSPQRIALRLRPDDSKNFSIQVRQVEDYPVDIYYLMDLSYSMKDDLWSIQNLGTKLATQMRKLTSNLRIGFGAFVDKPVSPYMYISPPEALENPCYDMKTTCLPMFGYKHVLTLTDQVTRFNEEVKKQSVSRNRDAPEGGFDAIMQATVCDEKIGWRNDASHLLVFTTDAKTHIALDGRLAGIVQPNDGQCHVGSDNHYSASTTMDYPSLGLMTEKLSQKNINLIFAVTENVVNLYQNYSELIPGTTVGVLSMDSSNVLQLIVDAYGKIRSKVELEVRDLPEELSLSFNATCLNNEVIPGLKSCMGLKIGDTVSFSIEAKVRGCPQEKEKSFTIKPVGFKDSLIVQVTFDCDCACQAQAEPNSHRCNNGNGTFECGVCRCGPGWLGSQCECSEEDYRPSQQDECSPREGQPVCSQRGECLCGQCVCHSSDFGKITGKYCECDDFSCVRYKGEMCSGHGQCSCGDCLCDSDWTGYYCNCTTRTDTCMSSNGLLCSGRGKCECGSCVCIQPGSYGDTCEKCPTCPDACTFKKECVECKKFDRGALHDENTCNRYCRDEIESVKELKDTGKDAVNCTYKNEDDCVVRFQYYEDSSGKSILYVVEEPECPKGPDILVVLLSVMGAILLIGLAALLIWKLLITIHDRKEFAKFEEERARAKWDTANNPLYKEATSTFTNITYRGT
T2 sequence (P08514 32-887 limits assumed): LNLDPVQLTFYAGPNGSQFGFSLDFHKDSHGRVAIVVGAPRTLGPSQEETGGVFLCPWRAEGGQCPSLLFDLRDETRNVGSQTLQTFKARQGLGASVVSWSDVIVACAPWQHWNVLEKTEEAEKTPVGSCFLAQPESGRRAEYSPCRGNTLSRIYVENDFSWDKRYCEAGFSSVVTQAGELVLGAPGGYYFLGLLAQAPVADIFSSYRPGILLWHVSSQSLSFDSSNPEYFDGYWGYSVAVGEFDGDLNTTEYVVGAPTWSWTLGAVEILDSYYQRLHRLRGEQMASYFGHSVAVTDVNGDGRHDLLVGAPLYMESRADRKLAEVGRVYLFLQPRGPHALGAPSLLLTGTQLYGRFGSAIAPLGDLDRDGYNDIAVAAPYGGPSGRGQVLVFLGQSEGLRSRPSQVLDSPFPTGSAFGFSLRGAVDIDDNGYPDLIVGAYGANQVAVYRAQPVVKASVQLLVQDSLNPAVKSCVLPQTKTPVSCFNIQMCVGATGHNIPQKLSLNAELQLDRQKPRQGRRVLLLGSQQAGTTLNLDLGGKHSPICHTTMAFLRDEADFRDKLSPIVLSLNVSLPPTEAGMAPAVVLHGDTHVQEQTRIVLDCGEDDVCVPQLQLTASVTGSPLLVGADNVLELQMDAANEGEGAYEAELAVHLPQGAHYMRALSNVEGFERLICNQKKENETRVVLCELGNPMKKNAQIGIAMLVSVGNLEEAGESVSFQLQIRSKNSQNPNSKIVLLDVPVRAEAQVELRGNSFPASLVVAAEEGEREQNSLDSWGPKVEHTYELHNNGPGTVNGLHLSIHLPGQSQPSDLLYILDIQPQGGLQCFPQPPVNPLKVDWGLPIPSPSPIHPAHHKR
T2 sequence (P08514 891-1039 limits assumed): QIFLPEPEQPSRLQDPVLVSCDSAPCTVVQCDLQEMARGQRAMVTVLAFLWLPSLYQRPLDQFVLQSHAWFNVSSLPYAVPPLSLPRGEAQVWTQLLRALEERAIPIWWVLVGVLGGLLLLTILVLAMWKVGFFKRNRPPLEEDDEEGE
T2 sequence (P05106 27-788): as the sequence (P05106 27-788) above

Row | IC50 [1] [nM] | IC50 [2] [nM] | SMILES
1 | 30.6 | 664 | O=C(O)/C=C/c1ccc(/C=C/c2cccc(NC3=NCCCS3)c2)cc1 [Example 100, 3-[4-[2-[3-[(5,6-dihydro-4H-thiazin-2-yl)amino]phenyl]ethenyl]phenyl]propenoic acid, trifluoroacetate salt]
2 | 42.6 | 118 | O=C(O)/C=C/c1ccc(OCc2cccc(NC3=NCCCN3)c2)cc1 [Example 101, 3-[4-[[3-[(1,4,5,6-tetrahydropyrimidin-2-yl)amino]phenyl]methoxy]phenyl]propenoic acid, trifluoroacetate salt]
3 | 1940 | 4480 | N=C(N)Nc1cccc(-c2nc(-c3cccc(/C=C/C(=O)O)c3)co2)c1 [Example 102, 3-[3-[2-[3-[(aminoiminomethyl)amino]phenyl]oxazol-4-yl]phenyl]propenoic acid, trifluoroacetate salt]
4 | 32100 | 0.9 | N=C(N)Nc1cccc(-c2coc(-c3ccc(C=CC(=O)O)cc3)n2)c1 [Example 103, 3-[4-[4-[3-[(aminoiminomethyl)amino]phenyl]oxazol-2-yl]phenyl]propenoic acid]
5 | 17300 | 24.5 | N=C(N)Nc1cccc(-c2ncc(-c3ccc(/C=C/C(=O)O)cc3)[nH]2)c1 [Example 104, 3-[4-[2-[3-[(aminoiminomethyl)amino]phenyl]-1H-imidazol-5-yl]phenyl]propenoic acid, trifluoroacetate salt]
